The values below come from patent US3955959A, “Herbicide for use in transplanted rice” (priority 1974, dated 1976).

The test has as its system Brachiaria platyphylla, Digitaria spp, Echinochloa spp, Eleusine indica, Leptochloa spp and Setaria spp. The experiment in a line: Weeds effectively treated to date: grasses. It counts as in vivo.

Take `CCCCOCN(C(=O)CCl)c1c(C)cccc1C(C)(C)C` [Herbicide A, n-(butoxymethyl)-6'-tert-butyl-2-chloro-o-acetotoluidide]: the effectively treated grasses entry was “effectively treated”.
